Results reported in US8318781B2, “G-protein-conjugated receptor agonist” (Japan Science and Technology Agency, priority 2007, dated 2012).
Like-named read-outs stand apart in the source and are kept apart here.

Legend:
Type in all cases: cell-based
human GPR120 (hGPR120) [1] = molecular target: T1, human GPR120 (hGPR120) (Homo sapiens, UniProt Q5NUL3); experiment: Determination of intracellular Ca2+ concentration (FLIPR), cell line TXGPR120; settings: for agonistic activity for hGPR120 (in words): cells in which GPR120 has been transgenically expressed; for [Ca^2+]/GPR120 10 μM (ratio vs. LA): relative fluorescence intensity vs LA at 10 μM
T1 construct: expressed in transfected cells; doxycycline-inducible expression vector
T1 sequence (Q5NUL3 1-361): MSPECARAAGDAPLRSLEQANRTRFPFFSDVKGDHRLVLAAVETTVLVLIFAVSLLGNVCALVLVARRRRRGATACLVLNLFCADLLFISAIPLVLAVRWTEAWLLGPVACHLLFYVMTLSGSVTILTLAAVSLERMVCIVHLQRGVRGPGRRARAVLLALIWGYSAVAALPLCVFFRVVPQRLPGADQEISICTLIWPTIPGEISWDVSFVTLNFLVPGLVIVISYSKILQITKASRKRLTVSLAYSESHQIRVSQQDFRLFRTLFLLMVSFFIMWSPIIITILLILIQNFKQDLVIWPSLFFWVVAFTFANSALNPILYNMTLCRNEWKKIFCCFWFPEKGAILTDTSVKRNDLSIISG
Experimental: (§1) (1) In this test, The cell lines TXGPR40, TXGPR120 and GPR120/Flp-in were plated onto a collagen-coated black 96-well plate in 2×10^5 cells/well. The 96-well plates containing the cells were centrifuged and treated with Doxycycline (final concentration 10 μg/mL), incubated in a CO2 incubator for 21 hours, then used for assay.
(§2) (2) The ligand used in this test includes NCP04, NCP14, NCG20, NCG21, NCG22, NCG23, NCP02, NCP03, NCP05, NCP06, NCG14, NCG17, NCG19, NCG28, NCG29, NCG30, NCG31, NCG34, NCG35, NCG37, NCG38, NCG44, NCG45, NCG46, and NCG54. Each ligand was dissolved in DMSO and adjusted to the concentration of 10 mM, then diluted with Hanks' Balanced Salt Solution (pH 7.4) containing 20 mM HEPES (referred to as FLIPR buffer hereinafter) to the final concentration of 1 to 100 μM. 1% DMSO was used as the negative control, and LA was used as the positive control.
(§3) The ligands and controls were placed in different 96-well plates from the plates for the cells.
(§4) (3) The 96-well plate containing the cells was removed from the CO2 incubator. A fluorescent dye prepared in a twofold higher concentration (Ca Assay Kit Component A diluted with FLIPR Buffer) was added in 50 μL/well, then allowed to stand in the dark at room temperature for one hour.
(§5) (4) After one hour, the 96-well plate containing the cells and the 96-well plate in which ligands and controls were prepared were set on FLIPR (Fluorometric Imaging Plate Reader) for determination.
(§6) (5) Fluorometry using FLIPR was carried out at a laser output of 1.0 W for five minutes. […] after the start of the determination, the ligand (25 μL) was added dropwise to the cell plate at a rate of 50 μL/sec. The intensity of fluorescence was automatically digitized by the application program installed in the FLIPR from the image taken by the CCD camera (with exposure time of 0.40 sec). The interval of data sampling was one second for the initial one minute after the start of operation, and six seconds for the subsequent four minutes.
(§7) (6) The maximum fluorescence intensity was obtained from the data showing the change in the fluorescence intensity over time observed in each well. The maximum fluorescence intensity was plotted against ligand concentration, and pEC50 was calculated. The ratio of the fluorescence intensity for each ligand to LA at 10 μM was calculated as the relative intensity of each ligand.

human GPR120 (hGPR120) [2] = molecular target: T1, human GPR120 (hGPR120); experiment: Determination of intracellular Ca2+ concentration (FLIPR), cell line GPR120/Flp-in; settings: for [Ca^2+]/GPR120/Flp-In 10 μM (ratio vs. LA): relative fluorescence intensity vs LA at 10 μM
Experimental: as §1, §2, §3, §4, §5, §6, §7

human GPR40 (hGPR40) [3] = molecular target: T2, human GPR40 (hGPR40) (Homo sapiens, UniProt O14842); experiment: ERK assay, screening for GPR40 ligands in cell line TXGPR40; settings: TXGPR40 cells, class relative to LA; for ERK/GPR40 100 μM: ligand 100 μM; for ERK/GPR40 10 μM: ligand 10 μM
T2 construct: expressed in transfected cells; doxycycline-inducible expression vector
T2 sequence (O14842 whole entry): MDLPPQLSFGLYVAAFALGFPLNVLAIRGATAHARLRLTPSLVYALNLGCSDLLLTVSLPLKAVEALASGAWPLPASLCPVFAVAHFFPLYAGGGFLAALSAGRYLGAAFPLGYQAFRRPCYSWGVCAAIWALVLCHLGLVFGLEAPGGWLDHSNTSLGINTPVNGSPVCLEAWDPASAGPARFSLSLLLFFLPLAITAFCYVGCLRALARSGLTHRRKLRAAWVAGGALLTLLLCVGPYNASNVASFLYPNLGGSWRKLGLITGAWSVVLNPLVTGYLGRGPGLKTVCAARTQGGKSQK
Experimental: (§8) This Test 1 was carried out by using the following materials and methods.
(§9) (1) In this test, the cell lines TXGPR40 and TXGPR120 were plated in 35-mm dishes in 5×10^5 cells/per dish.
(§10) Each ligand was dissolved in DMSO, diluted tenfold with the medium to make the total amount of 100 μl. DMSO was used as the negative control, and PMA (phorbol-12-myristate-13-acetate) was used as the positive control.
(§11) (3) The medium was removed from the dish of the cell to reduce the total amount of liquid to 0.9 ml.
(§12) (4) The ligand solution was added dropwise to the cell solution, and dispersed by gently shaking the dish, and allowed to react at room temperature.
(§13) (5) After 5 minutes of reaction, the medium was discarded, and the remaining medium on the dish was removed on ice using an aspirator.
(§14) (6) 150 μl of Lysis buffer (50 mM HEPES (pH 7.0), 150 mM NaCl, 10% glycerol, 1% NonidetP-40, 2 mM MgCl2, 1 mM EDTA, 100 mM NaF, 10 mM sodium phosphate, 1 mM Na3VO4, 20 mM β-glycerophosphate, and Proteinase inhibitor) were added, then the cells were collected using a cell scraper.
(§15) (1) The crude enzyme solution mixed with SDS Sample Buffer was subjected to ultrasonication with a sonifier, then incubated at 90° C. for five minutes.
(§16) (2) The mixture was vortexed and centrifuged at 15,000 rpm for five minutes at 4° C.
(§17) (3) The supernatant of the centrifuged sample was applied to two 7.5% acrylamide gel slabs placed in an electrophoresis tank filled with 1×SDS-PAGE Running Buffer (25 mM Tris, 0.2 M Glycin, and 1% SDS). Electrophoresis was carried out under a constant current of 40 mA for about 80 to 90 minutes.
(§18) (1) A PVDF membrane cut in the same size as the gel slab was immersed in methanol for about 15 seconds and then shaken in Transfer Buffer C solution (25 mM Tris, 0.02% SDS, 2% methanol and 40 mM 6-aminohexanoic acid) at room temperature to swell for 15 minutes. Filter paper for blotting was cut into a 10-cm square.
(§19) (2) On the blotting apparatus were placed sequentially two pieces of filter paper immersed in A solution (0.3 M Tris, 0.02% SDS and 2% methanol), two pieces of filter paper immersed in B solution (25 mM Tris, 0.02% SDS and 2% methanol), and the membrane thereon. The gel slab after electrophoresis, and finally two pieces of filter paper immersed in C solution was placed thereon, and the apparatus was closed.
(§20) (3) The protein was transferred to the membrane at 15 V for 30 minutes.
(§21) (1) The following procedure was all carried out at room temperature. After the protein transfer, the membrane was placed into a vial containing 1×TTBS (0.2 M Tris, 1.5 M NaCl, 0.2% Tween 20) and washed for 15 minutes.
(§22) (2) TTBS was discarded, and about 10 ml of Block Ace was added and blocked on a shaker for one hour.
(§23) (1) The primary antibodies (p44/42 MAP Kinase Antibody and Phospho-p44/42 MAP Kinase Antibody) were each diluted 1000-fold with TTBS.
(§24) (2) After blocking, the Block Ace solution was removed, the solution of the primary antibody was added and allowed to react on the shaker for two hours.
(§25) (1) The secondary antibody (Anti-rabbit Ig, Horseradish Peroxidase linked F(ab′)2 fragments) was diluted 5000-fold with TTBS.
(§26) (2) The primary antibody solution was removed and the membrane was washed three times on the shaker in TTBS for five to ten minutes each.
(§27) (3) TTBS was removed and the solution of secondary antibody was added and left for 1 hour on the shaker.
(§28) (1) 2 ml each of Detection Reagent 1 and Detection Reagent 2 from ECL kit were mixed together on ice.
(§29) (2) The solution of secondary antibody was removed from the membrane reacted with the secondary antibody and then washed three times on the shaker in TTBS for five minutes each.
(§30) (3) The liquid was thoroughly removed from the membrane, which was then placed in a plastic bag, and 2 ml of the Detection Reagent mixture was added per each membrane.
(§31) (4) The membrane was kept in contact with a film in the cassette for one to five minutes, and the film was developed using an automatic developing machine.

human GPR40 (hGPR40) [4] = molecular target: T2, human GPR40 (hGPR40); experiment: Determination of intracellular Ca2+ concentration (FLIPR), cell line TXGPR40; settings: for [Ca^2+]/GPR40 10 μM (ratio vs. LA): relative fluorescence intensity vs LA at 10 μM; for agonistic activity for GPR40 (in words): cells in which GPR40 has been transgenically expressed
Experimental: as §1, §2, §3, §4, §5, §6, §7

human GPR120 (hGPR120) [5] = molecular target: T1, human GPR120 (hGPR120); experiment: ERK assay, screening for GPR120 ligands in cell line TXGPR120; settings: TXGPR120 cells; for ERK/GPR120 10 μM: ligand 10 μM; for ERK/GPR120 10 μM / ERK/GPR120 100 μM: class relative to LA; for ERK/GPR120 100 μM: ligand 100 μM;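 as to ERK/GPR120 10 μM: signals normalized between DMSO and PMA controls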
Experimental: as §8, §9, §10, §11, §12, §13, §14, §15, §16, §17, §18, §19, §20, §21, §22, §23, §24, §25, §26, §27, §28, §29, §30, §31

[6] = GPR120/Flp-in cells, maximum fluorescence intensity vs ligand concentration, read-out: [Ca^2+]/GPR120/Flp-In pEC50 (converted)

Row | SMILES | EC50 (human GPR120 (hGPR120) [1]; TXGPR120 cells, maximum fluorescence intensity vs ligand concentration, read-out: [Ca^2+]/GPR120 pEC50 (converted)) [µM] | agonistic activity for hGPR120 (in words) (human GPR120 (hGPR120) [1]) | [Ca^2+]/GPR120 10 μM (ratio vs. LA) (human GPR120 (hGPR120) [1]; TXGPR120 cells) | EC50 (human GPR120 (hGPR120) [2]; [6]) [µM] | [Ca^2+]/GPR120/Flp-In 10 μM (ratio vs. LA) (human GPR120 (hGPR120) [2]; GPR120/Flp-in cells) | ERK/GPR40 100 μM (human GPR40 (hGPR40) [3]) | [Ca^2+]/GPR40 10 μM (ratio vs. LA) (human GPR40 (hGPR40) [4]; TXGPR40 cells) | ERK/GPR120 10 μM (human GPR120 (hGPR120) [5]) | ERK/GPR120 100 μM (human GPR120 (hGPR120) [5]) | ERK/GPR40 10 μM (human GPR40 (hGPR40) [3]) | EC50 (human GPR40 (hGPR40) [4]; TXGPR40 cells, maximum fluorescence intensity vs ligand concentration, read-out: [Ca^2+]/GPR40 pEC50 (converted)) [µM] | agonistic activity for GPR40 (in words) (human GPR40 (hGPR40) [4]) | EC50 (human GPR120 (hGPR120) [1]) [µM] | EC50 (human GPR120 (hGPR120) [2]) [µM] | EC50 (human GPR40 (hGPR40) [4]) [µM] | ERK activation for GPR120 (in words) (human GPR120 (hGPR120) [5]; FIGS. 5-8)
1 | O=C(O)CCCc1ccc(OCCN(c2ccccc2)c2ncccn2)cc1 [NCG44] | 22.9 | exhibit a similar effect | 0.49 | 3.55 | 0.85 | + (+ denotes 0 to 100% of LA) | 0.01 | + (+ denotes 0 to 100% of LA) | ++ (++ denotes 50 to 100% of LA) |  |  |  |  |  |  | 
2 | O=C(O)CCc1ccc(OCCN(c2ccccc2)c2ccccn2)cc1 [NCP14] |  | exhibit a similar effect | 0.00 | 15.5 | 0.56 | ++ (++ denotes 50 to 100% of LA) | 0.98 |  | ++ (++ denotes 50 to 100% of LA) | ++ (++ denotes 50 to 100% of LA) | 9.77 | showed a specific reactivity |  |  |  | 
3 | Cc1ccnc(N(CCOc2ccc(CCCC(=O)O)cc2)c2ccccc2)c1 [NCG34] |  | exhibit a similar effect | 0.49 |  | 0.81 | +++ (+++ denotes a higher value than LA) | 0.43 | +++ (+++ denotes a higher value than LA) | +++ (+++ denotes a higher value than LA) | + (+ denotes 0 to 100% of LA) |  | showed a specific reactivity | 28.8 | 6.92 | 22.4 | strongly activate ERK
